Reference: patent publication US20190336494A1, “[…] COMPOUNDS FOR TREATING AGITATION” (Concert Pharmaceuticals, Inc., priority 2015, published 2019)

Assays:
[1] = Metabolic stability of test compounds using human liver microsomes; type: in vitro ADME; conditions: for half-life at 1 µM: human, pH 7.4, 1.0 mg/mL HLM, 1 μM test compound, 2 mM NADPH, 37° C., 0-30 minutes, read-out: Ave. t1/2 (n = 2), calculated half-life in human liver microsomes; for Change over non-deuterated compound (t1/2): vs Dimemorfan
Experimental: Example 4. Determination of Metabolic Stability of Test Compounds using Human Liver Microsomes. Human liver microsomes (20 mg/mL) were obtained from Xenotech, LLC (Lenexa, Kans.). β-nicotinamide adenine dinucleotide phosphate, reduced form (NADPH), magnesium chloride (MgCl2), and dimethyl sulfoxide (DMSO) were purchased from Sigma-Aldrich.
7.5 mM stock solutions of test compounds were prepared in DMSO. The 7.5 mM stock solutions were diluted to 50 μM in acetonitrile (ACN). The 20 mg/mL human liver microsomes were diluted to 1.25 mg/mL (1 mg/mL final) in 0.1 M potassium phosphate buffer, pH 7.4, containing 3 mM MgCl2. The diluted microsomes (375 μL) were added to wells of a 96-well polypropylene plate in triplicate. 10 μL of the 50 μM test compound was added to the microsomes and the mixture was pre-warmed for 10 minutes. Reactions were initiated by addition of 125 μL of pre-warmed NADPH solution. The final reaction volume was 0.5 mL and contained 1.0 mg/mL human liver microsomes, 1 μM test compound, and 2 mM NADPH in 0.1 M potassium phosphate buffer, pH 7.4, and 3 mM MgCl2. The reaction mixtures were incubated at 37° C., and 50 μL aliquots were removed at 0, 5, 10, 20, and 30 minutes and added to shallow 96-well plates which contained 50 μL of ice-cold ACN with internal standard to stop the reactions. The plates were stored at 4° C. for 20 minutes after which 100 μL of water was added to the wells of the plate before centrifugation to pellet precipitated proteins. Supernatants were transferred to another 96-well plate and analyzed for amounts of parent remaining by LC-MS/MS using an Applied Bio-systems API 4000 mass spectrometer.
7-ethoxy coumarin was used as a positive control.
The in vitro t1/2s for test compounds were calculated from the slopes of the linear regression of % parent remaining (In) vs incubation time relationship:
in vitro t 1/2=0.693/k, where k=-[slope of linear regression of % parent remaining(In) vs incubation time]
(§1) Data analysis was performed using Microsoft Excel Software.

[2] = Effect of quinidine on metabolic stability in extensive metabolizer human liver microsomes; type: in vitro ADME; conditions: EM HLM
Experimental: Materials: Individual donor with extensive metabolizer human liver microsomes (EM HLM, 20 mg/mL) with CYP2D6 activity of 957±19 pmol/mg protein/min, genotyped for CYP2D6 allelic variant-CYP2D6*1/*2x2, were obtained from Xenotech, LLC (Lenexa, Kans.). β-nicotinamide adenine dinucleotide phosphate, reduced form (NADPH), magnesium chloride (MgCl2), dimethyl sulfoxide (DMSO), acetonitrile (ACN), quinidine, and dextromethorphan (DM) were purchased from Sigma-Aldrich. Dimemorfan and d6-dimemorfan (Compound 100) were synthesized by Adesis, Inc.
Determination of Metabolic Stability: 1.0 mg/mL stock solutions of test compounds dextromethorphan, dimemorfan, and d6-dimemorfan (Compound 100) were prepared in DMSO. The 1.0 mg/mL stock solutions were diluted to 10,000 ng/mL in acetonitrile (ACN). A 10 mM stock solution of quinidine was prepared in acetonitrile, which was then diluted further in acetonitrile to produce 20 μM, 10 μM, 5 μM, 2.5 μM, and 1.25 μM solutions of quinidine. The human liver microsomes were diluted to 1.25 mg/mL in 0.1 M potassium phosphate buffer, pH 7.4, containing 3 mM MgC12. The diluted microsomes were added to wells of a 96-well deep-well polypropylene plate in triplicate. A 5 μL aliquot of each 10,000 ng/mL test compound was added to the microsomes, and the mixture was pre-warmed at 37° C. for 7 minutes, then a 5 μL aliquot of each quinidine solution was added (except in control wells where no quinidine was added). Reactions were initiated by addition of pre-warmed NADPH solution to the mixture. The final reaction volume was 0.5 mL and contained 1.0 mg/mL human liver microsomes, 100 ng/mL of test compound, 0.2, 0.1, 0.05, 0.025, 0.0125, or 0 μM of quinidine, and 2 mM NADPH in 0.1 M potassium phosphate buffer, pH 7.4, and 3 mM MgCl2. The reaction mixtures were incubated at 37° C., and 50 μL aliquots were removed at 0, 15, 30, and 60 minutes and added to shallow-well 96-well plates which contained 50 μL of ice-cold ACN with internal standard to stop the reactions. The plates were stored at 4° C. for 20 minutes after which 100 μL of water was added to the wells of the plate before centrifugation to pellet precipitated proteins. Supernatants were transferred to another 96-well plate and analyzed for amounts of parent remaining by LC-MS/MS using an Applied Bio-systems mass spectrometer. Amount of parent remaining was quantified via standard curve.
The in vitro t1/2's for test compounds were calculated from the slopes of the linear regression of % parent remaining (In) vs. incubation time relationship. • in vitro t1/2=0.693/k • k=-[slope of linear regression of % parent remaining(In) vs incubation time]
The apparent intrinsic clearance was calculated using the following equation:
CLint (mL/min/kg)=(0.693/in vitro t1/2) (Incubation Volume/mg of microsomes)
(45 mg microsomes/gram of liver) (20 gm of liver/kg b.w.)
as §1

| Structure (SMILES) | half-life at 1 µM [1] [min] | Change over non-deuterated compound (t1/2) [1] [%] | % Δ (D6-Dimemorfan/Dimemorfan), deuterium effect on half-life ([2]; Quinidine 0 μM) [%] | Ratio (D6-Dimemorfan/Dimemorfan) of Clint, app ([2]; Quinidine 0 μM) | % Δ (D6-Dimemorfan/Dimemorfan), deuterium effect on half-life ([2]; Quinidine 0.0125 μM) [%] | Ratio (D6-Dimemorfan/Dimemorfan) of Clint, app ([2]; Quinidine 0.0125 μM) | % Δ (D6-Dimemorfan/Dimemorfan), deuterium effect on half-life ([2]; Quinidine 0.025 μM) [%] | Ratio (D6-Dimemorfan/Dimemorfan) of Clint, app ([2]; Quinidine 0.025 μM) | % Δ (D6-Dimemorfan/Dimemorfan), deuterium effect on half-life ([2]; Quinidine 0.05 μM) [%] | Ratio (D6-Dimemorfan/Dimemorfan) of Clint, app ([2]; Quinidine 0.05 μM) | % Δ (D6-Dimemorfan/Dimemorfan), deuterium effect on half-life ([2]; Quinidine 0.1 μM) [%] | Ratio (D6-Dimemorfan/Dimemorfan) of Clint, app ([2]; Quinidine 0.1 μM) | % Δ (D6-Dimemorfan/Dimemorfan), deuterium effect on half-life ([2]; Quinidine 0.2 μM) [%] | Ratio (D6-Dimemorfan/Dimemorfan) of Clint, app ([2]; Quinidine 0.2 μM) |
| --- | --- | --- | --- | --- | --- | --- | --- | --- | --- | --- | --- | --- | --- | --- |
| [2H]C([2H])([2H])c1ccc2c(c1)[C@]13CCCC[C@@H]1[C@H](C2)N(C([2H])([2H])[2H])CC3 [Compound 100, (+)-3-(Methyl-d3)-17-(methyl-d3)-(9α, 13α, 14α)-morphinan] | 31.6 | 37 | 35 | 0.74 | 59 | 0.61 | 3 | 0.96 | 11 | 0.90 | 22 | 0.82 | −12 | 1.11 |
| [2H]C([2H])([2H])c1ccc2c(c1)[C@]13CCCC[C@@H]1[C@H](C2)N(C)CC3 [Compound 102, (+)-3-(Methyl-d3)-17-methyl-(9α, 13α, 14α)-morphinan] | 28 | 21 |  |  |  |  |  |  |  |  |  |  |  |  |
| Cc1ccc2c(c1)[C@]13CCCC[C@@H]1[C@H](C2)N(C)CC3 [Dimemorfan, (+)-(9α, 13α, 14α)-3,17-dimethylmorphinan, reference compound] | 23.1 |  |  |  |  |  |  |  |  |  |  |  |  |  |
